# In patent publication US4267192A, “Method for treating inflammation” (priority 1980, dated 1981):
# Where two headings read alike, the source gives them in different places.
# How the values were obtained:
# [1] = tested on: polyarthritis induced by Mycobacterium butyricum or tuberculosis in rats; settings: for Increase in Left Paw Volume (ml.) 0-16 days / Increase in Right Paw Volume (ml.) 0-4 days: mean ± S.E.
# Method: (§2) Polyarthritis is induced in groups of 6-10 Sprague-Dawley rats weighing between 180-220 g. by a subcutaneous injection into the right paw of dessicated Mycobacterium butyricum or tuberculosis (0.5 mg/0.1 ml.) suspended in light mineral oil. […] Both hind paw volumes (ml.) are measured by mercury plethysmograph on day 0 or at the time of injection of the complete adjuvant. Increases in paw volume (viz. edema) are determined for both paws on days 4 and 16. The change in body weight from day 0 to day 16 is also calculated. Statistical analysis of differences in paw edemas and body weight is performed by using the unpaired. Student's t-test.
# [2] = tested on: carrageenan-induced edema in the hind paw of the rat; assay: rat carrageenan edema test (hind paw); assay type: in vivo, rat (male Sprague-Dawley); settings: for Change in paw volume (ml) from 0-3 hr: mean ± S.E.; for % Change in paw edema: vs control
# Method: (§1) Vehicle alone is administered as a control. Sixty minutes after drug administration edema is induced by an injection of 0.1 ml. of a 1% carrageenan solution is saline into the subplantar tissue of the rat's right hind paw. Two minutes later, paw volume is measured volumetrically with a plethysmograph and again 3 hours later. The mean volume of swelling for the control group is calculated and compared to the test groups. Percent change in paw edema is calculated and analyzed statistically (unpaired, Student's t-test).
# [3] = tested on: adjuvant arthritis in rats; assay: Adjuvant Arthritis Test, periodic administration (with daily regimen for comparison); settings: rat; for Increase in Paw Volume 0-16 days (left paw) / Increase in Right Paw Volume (ml.) 0-4 days: mean ± S.E.
# Method: as §2
# Adjuvant arthritis is induced as described in A. above, but drugs are administered only on days 2, 3, 4 or on days 8, 9, 10.
# [4] = tested on: rat stomach (gastric ulcers, gastric swelling); assay type: in vivo, rat (male Charles River, Sprague-Dawley); settings: for Number of Animals With Gastric Swelling / Number of Animals With Gastric Ulcers: 4 hours after dosing
# Method: The rats are divided into groups 6-10 and dosed by the oral route with test compound, on a mg/kg. body weight basis, or vehicle control, 0.5% carboxymethylcellulose, in a volume of 3 ml. per rat. Four hours after dosing, the rats are decapitated and exsanguinated. Stomachs are removed and examined for gastric swelling and then opened and washed for visual inspection of gastric ulcers. Only one lesion or gastric bleeding is necessary for a positive response. Data is reported quantally.
# [5] = tested on: carrageenan-induced edema in the hind paw of normal and adrenalectomized rats; assay: carrageenan paw edema in normal and adrenalectomized rats; assay type: in vivo, rat
# Method: as §1
# Normal rats received the same doses as adrenalectomized rats.
# [6] = rat, oral 3.0 mg/kg daily, Table 3 group a
# [7] = rat, oral 5.0 mg/kg daily, Table 3 group b
# [8] = rat, oral 10.0 mg/kg daily, Table 3 group a
# [9] = rat, oral 10.0 mg/kg daily, Table 3 group b
# [10] = rat, oral 25.0 mg/kg daily, Table 3 group b
# [11] = rat, oral 30.0 mg/kg daily, Table 3 group a
# [12] = rat, oral 100.0 mg/kg daily, Table 3 group a
# [13] = rat, oral 300.0 mg/kg daily, Table 3 group a
# [14] = oral 100 mg/kg, Table 1 group a
# [15] = oral 180 mg/kg, Table 1 group c
# [16] = oral 180 mg/kg, Table 1 group e
# [17] = oral 2 mg/kg, Daily (0-15) except weekends
# [18] = oral 6 mg/kg, Daily (0-15) except weekends
# [19] = oral 18 mg/kg, Daily (0-15) except weekends
# [20] = Adrenalectomized Rats, oral 100 mg/kg
# [21] = Adrenalectomized Rats, oral 200 mg/kg
smiles,measurement,setting,value
O=C(O)C=C1c2ccccc2C=Cc2ccccc21 [DCHA],potency relative to aspirin,"[1]; chronic inflammatory disease mediated mainly through immunological mechanisms, in words",several times more potent than aspirin
same,toxicity at high doses,[1]; in words,no apparent toxicity at high doses
same,% Change of Left Paw Edema at Day 16,[1]; [6],-45%
same,% Change of Right Paw Edema at Day 4,[1]; [6],-15%
same,Change In Body Weight (mean ± S.E.) 0-16 days,[1]; [6],22.5 ± 9.6
same,Increase in Left Paw Volume (ml.) 0-16 days,[1]; [6],0.43 ± .09 mL
same,Increase in Right Paw Volume (ml.) 0-4 days,[1]; [6],1.33 ± .11 mL
same,% Change of Left Paw Edema at Day 16,[1]; [7],-5.4%
same,% Change of Right Paw Edema at Day 4,[1]; [7],-30%
same,Change In Body Weight (mean ± S.E.) 0-16 days,[1]; [7],19.5 ± 5.8
same,Increase in Left Paw Volume (ml.) 0-16 days,[1]; [7],0.70 ± .05 mL
same,Increase in Right Paw Volume (ml.) 0-4 days,[1]; [7],1.30 ± .08 mL
same,% Change of Left Paw Edema at Day 16,[1]; [8],-47%
same,% Change of Right Paw Edema at Day 4,[1]; [8],-55%
same,Change In Body Weight (mean ± S.E.) 0-16 days,[1]; [8],25.6 ± 8.0
same,Increase in Left Paw Volume (ml.) 0-16 days,[1]; [8],0.41 ± .04 mL
same,Increase in Right Paw Volume (ml.) 0-4 days,[1]; [8],0.70 ± .06 mL
same,% Change of Left Paw Edema at Day 16,[1]; [9],-55%
same,% Change of Right Paw Edema at Day 4,[1]; [9],-39%
same,Change In Body Weight (mean ± S.E.) 0-16 days,[1]; [9],33.3 ± 5.5
same,Increase in Left Paw Volume (ml.) 0-16 days,[1]; [9],0.33 ± .06 mL
same,Increase in Right Paw Volume (ml.) 0-4 days,[1]; [9],1.14 ± .04 mL
same,% Change of Left Paw Edema at Day 16,[1]; [10],-47%
same,% Change of Right Paw Edema at Day 4,[1]; [10],-47%
same,Change In Body Weight (mean ± S.E.) 0-16 days,[1]; [10],30.3 ± 5.7
same,Increase in Left Paw Volume (ml.) 0-16 days,[1]; [10],0.39 ± .04 mL
same,Increase in Right Paw Volume (ml.) 0-4 days,[1]; [10],1.00 ± .05 mL
same,% Change of Left Paw Edema at Day 16,[1]; [11],-62%
same,% Change of Right Paw Edema at Day 4,[1]; [11],-58%
same,Change In Body Weight (mean ± S.E.) 0-16 days,[1]; [11],45.8 ± 5.6
same,Increase in Left Paw Volume (ml.) 0-16 days,[1]; [11],0.30 ± .05 mL
same,Increase in Right Paw Volume (ml.) 0-4 days,[1]; [11],0.66 ± .06 mL
same,weight gain,"[1]; rat, oral 100 mg/kg",51 g
same,% Change of Left Paw Edema at Day 16,[1]; [12],-60%
same,% Change of Right Paw Edema at Day 4,[1]; [12],-53%
same,Change In Body Weight (mean ± S.E.) 0-16 days,[1]; [12],50.6 ± 5.4
same,Increase in Left Paw Volume (ml.) 0-16 days,[1]; [12],0.31 ± .05 mL
same,Increase in Right Paw Volume (ml.) 0-4 days,[1]; [12],0.74 ± .08 mL
same,weight gain,"[1]; rat, oral 300 mg/kg",58 g
same,% Change of Right Paw Edema at Day 4,[1]; [13],-58%
same,Change In Body Weight (mean ± S.E.) 0-16 days,[1]; [13],58.2 ± 8.3
same,Increase in Left Paw Volume (ml.) 0-16 days,[1]; [13],0.14 ± .06 mL
same,Increase in Right Paw Volume (ml.) 0-4 days,[1]; [13],0.66 ± .05 mL
same,toxic signs or loss of body weight,"[1]; rat, oral 100 and 300 mg/kg",did not show any toxic signs or loss of body weight
same,anti-inflammatory activity in the adjuvant arthritis test,"[1]; rat, oral, daily",significant anti-inflammatory activity
same,estimated ED50 (adjuvant arthritis test),"[1]; rat, oral, daily",~15 mg/kg
same,"active doses, right paw edema at 4 days (acute, non-specific inflammation)","[1]; rat, orally",10 to 300 mg/kg
same,"effective doses, left paw edema (immunologically induced inflammation)","[1]; rat, orally",3-300 mg/kg
same,estimated ED50 (carrageenan paw edema),[2]; oral,~80 mg/kg
same,oral doses that inhibit carrageenan paw edema,[2]; oral,10 to 180 mg/kg
same,Change in paw volume (ml) from 0-3 hr,"[2]; oral 3 mg/kg, Table 1 group a",0.63 ± 0.10 mL
same,% Change in paw edema,"[2]; oral 3 mg/kg, Table 1 group a",-18%
same,Change in paw volume (ml) from 0-3 hr,"[2]; oral 10 mg/kg, Table 1 group a",0.61 ± 0.05 mL
same,% Change in paw edema,"[2]; oral 10 mg/kg, Table 1 group a",-21%
same,Change in paw volume (ml) from 0-3 hr,"[2]; oral 10 mg/kg, Table 1 group b",0.53 ± 0.10 mL
same,% Change in paw edema,"[2]; oral 10 mg/kg, Table 1 group b",-48%
same,Change in paw volume (ml) from 0-3 hr,"[2]; oral 20 mg/kg, Table 1 group c",0.84 ± 0.10 mL
same,% Change in paw edema,"[2]; oral 20 mg/kg, Table 1 group c",-16%
same,Change in paw volume (ml) from 0-3 hr,"[2]; oral 20 mg/kg, Table 1 group e",1.08 ± 0.05 mL
same,% Change in paw edema,"[2]; oral 20 mg/kg, Table 1 group e",-6%
same,Change in paw volume (ml) from 0-3 hr,"[2]; oral 30 mg/kg, Table 1 group a",0.48 ± 0.06 mL
same,% Change in paw edema,"[2]; oral 30 mg/kg, Table 1 group a",-38%
same,Change in paw volume (ml) from 0-3 hr,"[2]; oral 30 mg/kg, Table 1 group b",0.58 ± 0.08 mL
same,% Change in paw edema,"[2]; oral 30 mg/kg, Table 1 group b",-43%
same,Change in paw volume (ml) from 0-3 hr,"[2]; oral 60 mg/kg, Table 1 group c",0.47 ± 0.08 mL
same,% Change in paw edema,"[2]; oral 60 mg/kg, Table 1 group c",-53%
same,Change in paw volume (ml) from 0-3 hr,"[2]; oral 60 mg/kg, Table 1 group e",0.82 ± 0.13 mL
same,% Change in paw edema,"[2]; oral 60 mg/kg, Table 1 group e",-29%
same,Change in paw volume (ml) from 0-3 hr,"[2]; oral 90 mg/kg, Table 1 group b",0.44 ± 0.03 mL
same,% Change in paw edema,"[2]; oral 90 mg/kg, Table 1 group b",-57%
same,Change in paw volume (ml) from 0-3 hr,[2]; [14],0.44 ± 0.07 mL
same,% Change in paw edema,[2]; [14],-43%
same,Change in paw volume (ml) from 0-3 hr,[2]; [15],0.49 ± 0.06 mL
same,% Change in paw edema,[2]; [15],-51%
same,Change in paw volume (ml) from 0-3 hr,[2]; [16],0.62 ± 0.04 mL
same,% Change in paw edema,[2]; [16],-46%
same,activity in short term dosing regimen,"[3]; days 2, 3, 4",less so
same,activity in short term dosing regimen,"[3]; days 8, 9, 10",active
same,% Change of Left Paw Edema at Day 16,[3]; [17],+12%
same,% Change of Right Paw Edema at Day 4,[3]; [17],+17%
same,Change In Body Weight (mean ± S.E.) 0-16 days,[3]; [17],8.9 ± 7.8
same,Increase in Paw Volume 0-16 days (left paw),[3]; [17],0.82 ± 0.18
same,Increase in Right Paw Volume (ml.) 0-4 days,[3]; [17],1.60 ± 0.08 mL
same,% Change of Left Paw Edema at Day 16,[3]; [18],-16%
same,% Change of Right Paw Edema at Day 4,[3]; [18],-24%
same,Change In Body Weight (mean ± S.E.) 0-16 days,[3]; [18],6.0 ± 4.8
same,Increase in Paw Volume 0-16 days (left paw),[3]; [18],0.62 ± 0.04
same,Increase in Right Paw Volume (ml.) 0-4 days,[3]; [18],1.03 ± 0.06 mL
same,% Change of Left Paw Edema at Day 16,"[3]; oral 10 mg/kg, Days 2,3,4",-22%
same,% Change of Right Paw Edema at Day 4,"[3]; oral 10 mg/kg, Days 2,3,4",-33%
same,Change In Body Weight (mean ± S.E.) 0-16 days,"[3]; oral 10 mg/kg, Days 2,3,4",14.7 ± 11.7
same,Increase in Paw Volume 0-16 days (left paw),"[3]; oral 10 mg/kg, Days 2,3,4",0.58 ± 0.13
same,Increase in Right Paw Volume (ml.) 0-4 days,"[3]; oral 10 mg/kg, Days 2,3,4",0.92 ± 0.07 mL
same,% Change of Left Paw Edema at Day 16,"[3]; oral 10 mg/kg, Days 8,9,10",-58%
same,Change In Body Weight (mean ± S.E.) 0-16 days,"[3]; oral 10 mg/kg, Days 8,9,10",10.5 ± 7.9
same,Increase in Paw Volume 0-16 days (left paw),"[3]; oral 10 mg/kg, Days 8,9,10",0.31 ± 0.06
same,% Change of Left Paw Edema at Day 16,[3]; [19],-65%
same,% Change of Right Paw Edema at Day 4,[3]; [19],-41%
same,Change In Body Weight (mean ± S.E.) 0-16 days,[3]; [19],18.3 ± 6.7
same,Increase in Paw Volume 0-16 days (left paw),[3]; [19],0.26 ± 0.05
same,Increase in Right Paw Volume (ml.) 0-4 days,[3]; [19],0.81 ± 0.07 mL
same,gastric irritation,[4]; in words,neither causing gastric irritation nor affecting gastric secretions
same,effect on gastric secretion,"[4]; in words, high doses",no effect on gastric secretion
same,gastric ulceration,"[4]; rat, doses up to 480 mg/kg, in words",no gastric ulceration
same,Number of Animals With Gastric Swelling,"[4]; rat, oral 60 mg/kg",0/6
same,Number of Animals With Gastric Ulcers,"[4]; rat, oral 60 mg/kg",0/6
same,Number of Animals With Gastric Swelling,"[4]; rat, oral 120 mg/kg",0/6
same,Number of Animals With Gastric Ulcers,"[4]; rat, oral 120 mg/kg",0/6
same,Number of Animals With Gastric Swelling,"[4]; rat, oral 240 mg/kg",0/6
same,Number of Animals With Gastric Ulcers,"[4]; rat, oral 240 mg/kg",0/6
same,Number of Animals With Gastric Swelling,"[4]; rat, oral 480 mg/kg",0/6
same,Number of Animals With Gastric Ulcers,"[4]; rat, oral 480 mg/kg",0/6
same,% Inhibition,[5]; [20],37%
same,Edema (ml) ± S.E.,[5]; [20],0.57 ± .02 mL
same,% Inhibition,[5]; [21],41%
same,Edema (ml) ± S.E.,[5]; [21],0.81 ± .04 mL
same,% Inhibition,"[5]; Normal Rats, oral 100 mg/kg",38%
same,Mean Edema (ml) ± S.E.,"[5]; Normal Rats, oral 100 mg/kg",0.58 ± .04 mL
same,% Inhibition,"[5]; Normal Rats, oral 200 mg/kg",44%
same,Mean Edema (ml) ± S.E.,"[5]; Normal Rats, oral 200 mg/kg",0.53 ± .05 mL
same,action by stimulating naturally occurring steroids,[5]; in words,independent of the adrenal glands
same,anti-inflammatory activity in adrenalectomized rats compared with normal control animals,[5]; oral 100 and 200 mg/kg,not different from that observed in normal control animals
